Data taken from patent EP4324461A1, “(E)-N-CINAMOYLAMINOALKANOLES WITH MELANOGENESIS INHIBITORY ACTIVITY” (UNIWERSYTET JAGIELLONSKI, priority 2022, dated 2024).

Tests used:
E. coli WP2 = experiment: Ames microplate test, E. coli WP2;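 further: bacteria treated 90 min at 37 °C in 24-well plates, then indicator medium dispensed to 384-well plates and incubated 48 h before yellow-well counting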
S. typhimurium TA98 = experiment: Ames microplate test, TA98; assay type: cell-based, Salmonella typhimurium;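 further: reference level is the mean solvent-control yellow wells plus SD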
Description: (§1) Bacteria were grown overnight in growth medium.
(§2) Table 9. Ames microplate test results.

S. typhimurium TA100 = experiment: Ames microplate test, TA100; assay type: cell-based, Salmonella typhimurium;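 further: reference level is the mean solvent-control yellow wells plus SD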
Description: as §1, §2

S. typhimurium TA1537 = experiment: Ames microplate test, TA1537; assay type: cell-based, Salmonella typhimurium;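 further: reference level is the mean solvent-control yellow wells plus SD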
Description: as §1, §2

[1] = tested on: Chinese hamster ovary cell line (CHO-K1); experiment: Cytotoxicity in CHO-K1 cells (MTT) before the micronucleus test; assay type: cell-based; conditions: 24 hours
Description: The assay was performed using a Chinese hamster ovary cell line (CHO-K1) purchased from the American Type Culture Collection (ATCC). The cells were cultured in F-12K medium with the addition of 10% fetal bovine serum (FBS) and antibiotics (streptomycin/penicillin) in an incubator at 37 °C and 5% CO2 concentration). Before the actual micronucleus test, a cytotoxicity assessment was performed to ensure that the actual test was performed only at safe concentrations. For this purpose, cells were transferred to 96-well plates and incubated with the tested compounds for 24 hours. After this time, the MTT test was performed and cell viability was assessed in comparison to the control group (cells cultured with DMSO at the same concentration as in the case of the tested samples).

SMILES: O=C(/C=C/c1ccccc1)NCCCCCCO [H-425/21, (E)-N-(6-hydroxyhexyl)cinnamic acid amide]
- Increase in the number of yellow wells compared to the reference level (E. coli WP2; 0.5 mM, +S9): 0.75
- Increase in the number of yellow wells compared to the reference level (E. coli WP2; 0.5 mM, without S9): 0.17
- Increase in the number of yellow wells compared to the reference level (E. coli WP2; 1.0 mM, +S9): 0.83
- Increase in the number of yellow wells compared to the reference level (E. coli WP2; 1.0 mM, without S9): 0.67
- Increase in the number of yellow wells compared to the reference level (E. coli WP2; 2.0 mM, +S9): 0.75
- Increase in the number of yellow wells compared to the reference level (E. coli WP2; 2.0 mM, without S9): 1.00
- Increase in the number of yellow wells compared to the reference level (S. typhimurium TA98; 0.5 mM, +S9): 0.42
- Increase in the number of yellow wells compared to the reference level (S. typhimurium TA98; 0.5 mM, without S9): 0.27
- Increase in the number of yellow wells compared to the reference level (S. typhimurium TA98; 1.0 mM, +S9): 0.42
- Increase in the number of yellow wells compared to the reference level (S. typhimurium TA98; 1.0 mM, without S9): 0.54
- Increase in the number of yellow wells compared to the reference level (S. typhimurium TA98; 2.0 mM, +S9): 0.63
- Increase in the number of yellow wells compared to the reference level (S. typhimurium TA98; 2.0 mM, without S9): 0.80
- Increase in the number of yellow wells compared to the reference level (S. typhimurium TA100; 0.5 mM, +S9): 0.50
- Increase in the number of yellow wells compared to the reference level (S. typhimurium TA100; 0.5 mM, without S9): 0.73
- Increase in the number of yellow wells compared to the reference level (S. typhimurium TA100; 1.0 mM, +S9): 0.69
- Increase in the number of yellow wells compared to the reference level (S. typhimurium TA100; 1.0 mM, without S9): 0.80
- Increase in the number of yellow wells compared to the reference level (S. typhimurium TA100; 2.0 mM, +S9): 0.58
- Increase in the number of yellow wells compared to the reference level (S. typhimurium TA100; 2.0 mM, without S9): 0.73
- Increase in the number of yellow wells compared to the reference level (S. typhimurium TA1537; 0.5 mM, +S9): 1.33
- Increase in the number of yellow wells compared to the reference level (S. typhimurium TA1537; 0.5 mM, without S9): 0.09
- Increase in the number of yellow wells compared to the reference level (S. typhimurium TA1537; 1.0 mM, +S9): 0.00
- Increase in the number of yellow wells compared to the reference level (S. typhimurium TA1537; 1.0 mM, without S9): 0.18
- Increase in the number of yellow wells compared to the reference level (S. typhimurium TA1537; 2.0 mM, +S9): 1.00
- Increase in the number of yellow wells compared to the reference level (S. typhimurium TA1537; 2.0 mM, without S9): 0.82
- % Viability [mean] ([1]; 100 µM): 87.6%
- % Viability [mean] ([1]; 150 µM): 83.8%
- % Viability [mean] ([1]; 200 µM): 88.0%
